Measured values published in ChEMBL document CHEMBL1127234, “Acceptor analogues as potential inhibitors of bovine -1,4-galactosyl transferase” (Bioorg Med Chem Lett, 1994).

What was measured:
[1] = molecular target: T1, Beta-1,4-galactosyltransferase 1 (Bos taurus) (UniProt P08037); experiment: (§1) Inhibitory activity against bovine Beta-1,4-galactosyltransferase at 100 uM concentration
T1 sequence (whole entry): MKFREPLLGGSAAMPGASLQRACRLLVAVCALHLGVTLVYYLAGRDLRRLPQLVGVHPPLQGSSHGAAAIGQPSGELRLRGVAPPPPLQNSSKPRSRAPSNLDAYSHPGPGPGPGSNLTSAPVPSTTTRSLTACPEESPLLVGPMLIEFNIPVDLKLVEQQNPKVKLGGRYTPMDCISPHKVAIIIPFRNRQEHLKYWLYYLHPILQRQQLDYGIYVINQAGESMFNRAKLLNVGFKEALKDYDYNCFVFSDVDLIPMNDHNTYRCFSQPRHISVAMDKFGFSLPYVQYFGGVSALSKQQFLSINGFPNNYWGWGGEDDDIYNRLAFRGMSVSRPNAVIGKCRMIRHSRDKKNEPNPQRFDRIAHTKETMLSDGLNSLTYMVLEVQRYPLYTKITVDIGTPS

[2] = molecular target: T2, Beta-1,4-galactosyltransferase 1 (Bos taurus, UniProt P08037); experiment: as §1
T2 sequence (P08037 whole entry): T1 sequence (whole entry)

[3] = molecular target: T1, Beta-1,4-galactosyltransferase 1 (Bos taurus); experiment: Inhibitory activity against bovine Beta-1,4-galactosyltransferase at 100 uM concentration; ND means Not detectable

Row | Structure (SMILES) | Rate [1] [%] | Ki [2] [µM] | Rate [3]
1 | CC(=O)N[C@H]1[C@H](OCc2ccccc2)O[C@H](CO)[C@@H](O)[C@@H]1O | 100 |  | 
2 | CC(=O)N[C@H]1[C@H](OCc2ccccc2)O[C@H](CO)[C@@H](N)[C@@H]1O | 2 | 850 | 
3 | CC(=O)N[C@H]1[C@H](OCc2ccccc2)O[C@H](CO)[C@@H](NC(C)=O)[C@@H]1O | 2 |  | Not detectable
4 | CC(=O)N[C@H]1[C@H](O)[C@@H](N)[C@H](OCc2ccccc2)O[C@@H]1CO | 4 |  | 
5 | CC(=O)N[C@H]1[C@H](O)[C@@H](N=[N+]=[N-])[C@H](OCc2ccccc2)O[C@@H]1CO | 27 |  | 
6 | CC(=O)N[C@H]1[C@H](OCc2ccccc2)O[C@H](CO)[C@@H](N=[N+]=[N-])[C@@H]1O |  |  | Not detectable
